“And” between values parts separate entries of the source, which are not always exact repeats. Identical values can stand only once. Like-named read-outs stand apart in the source and are kept apart here.
Columns and labels:
Rac1 = target: T1, Rac1 (Homo sapiens, UniProt P63000); assay: Tiam1-catalyzed guanine nucleotide exchange of Rac1; assay type: biochemical; settings: in the presence of Tiam1; read-out: IC50, Rac1 guanine nucleotide exchange reaction
T1 construct: GST (cleaved yes); made in house; host or cells: E. coli
Protocol: Rac1 was expressed in E. coli as a GST fusion protein using the vector pGEX2T in accordance with previously described methods [Self and Hall, Meth. Enzymol. 256:3 (1995)]. Purified thrombin-cleaved Rac1 protein was used in the assay.
The Tiam1 DH-PH domain expressed as a fusion protein containing a carboxy terminal 6XHis tag using the plasmid pET28a described by Rossman and Campbell, Meth. Enzymol. 325:25 (2000).
The Tiam1-catalyzed exchange of GDP for GTP of Rac1 was carried out essentially according to the procedure described by Crompton et al., J. Biol.Chem. 275(33):25751 (2000). GDP-bound Rac1 was incubated with [α^32P]-labeled GTP, in the presence of Tiam1 and nucleotide exchange was monitored by following the increase in radioactivity bound to Rac1. Free radioactivity was removed by placing the reaction mixture in the well of a 96-well plate and filtering out the fraction of [α^32P]GTP that is not bound to Rac1. During the screen for the nucleotide exchange antagonists, the compounds were used at 10 μM concentration. The compounds analyzed by the screening methods are further described below.
Compounds that inhibit the Rac1 guanine nucleotide exchange reaction by at least 50% of the control were obtained. The IC50 value of several of the compounds were determined for the guanine nucleotide exchange reaction of Rac1, in the presence of Tiam1.

CD11b (Mac-1) = target: T2, CD11b (Mac-1) (Homo sapiens, UniProt P11215); assay: CD11b-mediated neutrophil adhesion to fibrinogen; assay type: cell-based
T2 construct: endogenous in cells; host or cells: neutrophils from fresh human blood
Protocol: The adhesion assay described above for CD18/CD11b-(Mac-1)-mediated adhesion of HL-60 cells to ICAM-1 was carried out with the following modifications. Each well was coated overnight at 4° C. with 50 μl of glycophorin (10 μg/ml), fibrinogen (5 μg/ml) or with anti-CD18 monoclonal antibody (22F12C, 5 μg/ml) and anti-CD11b monoclonal antibody (44AACB, 5 μg/ml) in 50 mM bicarbonate buffer (pH 9.6). Plates were blocked with 1% human serum albumin and no blocking antibody was used. Neutrophils were isolated from fresh heparin whole human blood by density gradient centrifugation and 100 μl of the cells (4×10^6 cells/ml) in adhesion buffer was added to each well. Plates were incubated at 37° C. for 10 minutes.

α2β1 = target: T3, α2β1 (Homo sapiens, UniProt P05556+P17301); assay: Jurkat cell adhesion to rat type I collagen; assay type: cell-based; settings: Jurkat cells, PMA
T3 construct: endogenous in cells; host or cells: Jurkat cells
T3 sequence (P17301 30-1181): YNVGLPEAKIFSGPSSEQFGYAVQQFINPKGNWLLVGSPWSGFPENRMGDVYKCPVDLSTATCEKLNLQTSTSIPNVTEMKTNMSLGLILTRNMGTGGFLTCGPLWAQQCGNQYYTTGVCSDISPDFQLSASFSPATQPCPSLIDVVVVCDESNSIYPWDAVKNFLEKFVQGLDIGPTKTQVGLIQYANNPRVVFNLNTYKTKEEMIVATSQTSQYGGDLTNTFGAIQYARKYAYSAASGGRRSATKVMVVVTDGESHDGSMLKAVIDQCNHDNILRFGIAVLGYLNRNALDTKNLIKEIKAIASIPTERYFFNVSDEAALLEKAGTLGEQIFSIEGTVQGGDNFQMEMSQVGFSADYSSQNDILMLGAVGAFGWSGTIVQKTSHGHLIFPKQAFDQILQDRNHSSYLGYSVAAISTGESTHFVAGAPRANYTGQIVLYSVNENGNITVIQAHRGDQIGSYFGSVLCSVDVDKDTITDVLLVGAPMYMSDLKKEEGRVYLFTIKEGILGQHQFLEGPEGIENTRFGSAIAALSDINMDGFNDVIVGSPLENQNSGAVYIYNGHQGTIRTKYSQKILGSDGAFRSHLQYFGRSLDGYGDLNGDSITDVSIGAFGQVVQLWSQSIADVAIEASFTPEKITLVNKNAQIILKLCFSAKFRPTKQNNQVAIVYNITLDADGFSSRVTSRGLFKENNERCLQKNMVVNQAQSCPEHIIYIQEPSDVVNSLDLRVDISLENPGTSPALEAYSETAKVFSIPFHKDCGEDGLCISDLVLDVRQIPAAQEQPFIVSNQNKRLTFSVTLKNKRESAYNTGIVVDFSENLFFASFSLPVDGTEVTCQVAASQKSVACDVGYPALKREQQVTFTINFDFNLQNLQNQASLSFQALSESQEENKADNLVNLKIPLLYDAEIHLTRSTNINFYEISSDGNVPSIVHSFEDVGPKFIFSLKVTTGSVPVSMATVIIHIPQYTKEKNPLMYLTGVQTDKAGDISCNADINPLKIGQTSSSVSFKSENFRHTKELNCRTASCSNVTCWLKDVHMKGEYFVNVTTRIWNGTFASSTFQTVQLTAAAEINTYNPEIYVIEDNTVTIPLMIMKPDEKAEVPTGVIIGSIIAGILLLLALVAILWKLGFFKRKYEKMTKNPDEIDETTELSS
T3 sequence (P05556 21-798 partner): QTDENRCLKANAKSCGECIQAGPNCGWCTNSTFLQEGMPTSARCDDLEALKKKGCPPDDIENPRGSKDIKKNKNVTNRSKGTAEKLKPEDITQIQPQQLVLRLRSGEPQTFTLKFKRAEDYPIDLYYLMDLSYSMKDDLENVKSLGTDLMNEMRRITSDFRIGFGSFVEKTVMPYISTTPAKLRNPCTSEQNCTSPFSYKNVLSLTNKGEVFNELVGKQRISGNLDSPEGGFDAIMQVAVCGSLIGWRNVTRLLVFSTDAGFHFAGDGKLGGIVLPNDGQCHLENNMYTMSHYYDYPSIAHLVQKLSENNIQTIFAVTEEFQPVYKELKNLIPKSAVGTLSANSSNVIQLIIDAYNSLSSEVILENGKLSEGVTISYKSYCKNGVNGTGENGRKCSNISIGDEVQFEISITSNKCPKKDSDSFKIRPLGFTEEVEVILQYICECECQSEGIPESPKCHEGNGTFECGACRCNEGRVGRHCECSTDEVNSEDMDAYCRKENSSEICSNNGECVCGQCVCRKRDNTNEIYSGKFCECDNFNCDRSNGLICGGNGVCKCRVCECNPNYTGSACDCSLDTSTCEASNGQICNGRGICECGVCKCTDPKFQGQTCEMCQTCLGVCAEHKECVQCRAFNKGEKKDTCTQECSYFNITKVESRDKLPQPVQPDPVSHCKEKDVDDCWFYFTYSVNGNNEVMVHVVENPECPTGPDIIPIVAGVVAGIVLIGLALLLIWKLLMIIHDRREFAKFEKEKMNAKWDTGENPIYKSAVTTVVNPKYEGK
Protocol: Binding studies using monoclonal antibodies to each of these integrins has shown that Jurkat cell adhesion to rat type I collagen is mediated predominantly through interaction with alpha2. […] The assay was carried out using a modification of a procedure previously described [Sadhu, et al., supra]. Immunlon 4 plates (Dynex Technologies, Chantilly, Va.) were coated overnight at 4° C. with (i) 50 μl rat type I collagen (Sigma) (20 μg/ml in CMF-PBS), (ii) anti-beta1 monoclonal antibody 3S3 (5 μg/ml) in bicarbonate buffer, pH 9.6, (iii) or bicarbonate buffer alone. Plates were washed once with 200 μl/well D-PBS and blocked with 1% BSA (100 μl/well) in D-PBS for 1 hr at room temperature. […] Adherent cells were fixed by additional of 50 μl/well 14% glutaraldehyde in D-PBS and incubation at room temperature for 2 hr. The plates were washed with dH2O and stained with 50 μl/well 0.5% crystal violet in 10% ethanol for 5 min at room temperature. The plates were washed in several changes of dH2O, after which 70% ethanol was added. Adherent cells were quantitated by determining absorbance at 570 nm and 410 nm using a […] 250 microplate spectrophotometer system (Molecular Devices, Sunnyvale Calif.). The percentage of cell binding was determined using the formula below. [formula] Data was normalized using the formula: [formula] […] These 21 compounds were further analyzed for specificity and toxicity. […] The assay was carried out in a manner similar to the collagen adhesion assay described above except that […] with VCAM-1/Ig instead of collagen. Binding to VCAM-1 was dependent on surface expression of α4β1.

Jurkat cells = assay: Jurkat cell toxicity (CellTiter 96 Aqueous One Solution); assay type: cell-based; settings: four hr or 24 hr incubation
Protocol: For 21 compounds, toxicity of Jurkat cells was assessed following a four hr or 24 hr incubation. […] A two-fold serial dilution series of each compound was tested in a concentration range of 40 μM to 0.15 μM.

α4β1 = α4β1 (Homo sapiens, UniProt P05556+P13612); assay: Jurkat cell binding to immobilized VCAM-1/Ig; assay type: cell-based; parameters: endogenous in cells; host or cells: Jurkat cells; settings: Jurkat cells; tested 0.15 μM to 20 μM; read-out: α7β1/VCAM EC50
α4β1, sequence (P13612 34-1032): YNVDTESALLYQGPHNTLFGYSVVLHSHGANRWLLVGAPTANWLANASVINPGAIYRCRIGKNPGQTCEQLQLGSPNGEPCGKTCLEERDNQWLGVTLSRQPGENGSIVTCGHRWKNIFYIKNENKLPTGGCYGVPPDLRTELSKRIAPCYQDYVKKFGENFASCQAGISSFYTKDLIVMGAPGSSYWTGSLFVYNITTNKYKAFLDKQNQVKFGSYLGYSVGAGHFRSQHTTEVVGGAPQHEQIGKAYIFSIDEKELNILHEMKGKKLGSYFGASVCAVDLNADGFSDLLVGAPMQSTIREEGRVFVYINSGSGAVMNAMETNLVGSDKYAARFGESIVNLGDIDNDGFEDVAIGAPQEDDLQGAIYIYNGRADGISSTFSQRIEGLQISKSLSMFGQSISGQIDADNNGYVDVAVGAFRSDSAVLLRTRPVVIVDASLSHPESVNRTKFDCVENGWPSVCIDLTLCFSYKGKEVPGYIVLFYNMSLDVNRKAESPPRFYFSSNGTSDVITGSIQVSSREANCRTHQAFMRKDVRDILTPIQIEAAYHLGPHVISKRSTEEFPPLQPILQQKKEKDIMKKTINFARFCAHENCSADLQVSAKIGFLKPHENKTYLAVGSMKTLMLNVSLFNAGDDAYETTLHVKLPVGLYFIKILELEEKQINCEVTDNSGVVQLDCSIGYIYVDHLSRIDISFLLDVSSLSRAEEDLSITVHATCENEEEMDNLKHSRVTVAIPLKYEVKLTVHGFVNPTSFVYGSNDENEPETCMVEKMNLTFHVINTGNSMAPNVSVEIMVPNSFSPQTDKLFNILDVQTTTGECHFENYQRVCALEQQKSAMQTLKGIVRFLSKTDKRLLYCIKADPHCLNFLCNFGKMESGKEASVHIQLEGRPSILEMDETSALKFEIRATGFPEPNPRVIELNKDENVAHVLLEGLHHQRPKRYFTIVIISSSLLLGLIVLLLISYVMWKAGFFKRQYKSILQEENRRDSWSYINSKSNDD
α4β1, sequence (P05556 21-798): as the sequence (P05556 21-798 partner) above
Protocol: These 21 compounds were further analyzed for specificity and toxicity. […] The assay was carried out in a manner similar to the collagen adhesion assay described above except that […] with VCAM-1/Ig instead of collagen. Binding to VCAM-1 was dependent on surface expression of α4β1.

[1] = target: iC3b (Homo sapiens (Human)) (UniProt P01024); assay: adhesion of COS-7 transfectants to immobilized iC3b
[2] = target: ICAM-1/Fc (Homo sapiens (Human)) (UniProt P05362); assay: adhesion of COS-7 transfectants to immobilized ICAM-1/Fc
[3] = after SAR efforts based on Cmpd S, read-out: IC50 (inhibition potency), neutrophil adhesion to fibrinogen
[4] = read-out: IC50, neutrophil adhesion to fibrinogen

Compound	EC50 (α2β1) [µM]	TOXICITY LD50 (Jurkat cells) [µM]	EC50 (α4β1) [µM]	other results
CSc1ccc(-c2ccnc(N3CCC(C)CC3)c2)cc1C(C)(F)F [Cmpd AAA]	–	–	–	IC50 (Rac1): 3.5 µM
CC(C)Sc1ccc(-c2ccnc(N3CCCC(C)(C)C3)c2)cc1C(F)(F)F [Cmpd AAB]	–	–	–	IC50 (Rac1): 4.7 µM
CC(C)Sc1ccc(-c2ccnc(N3CCC(NC(=O)OC(C)(C)C)CC3)c2)cc1C(F)(F)F [Cmpd AAC]	–	–	–	IC50 (Rac1): 5 µM
CC(CN(C)C)NCc1ccccc1Sc1ccc(C(C)(C)C)cc1 (centres unmarked) [Cmpd AA]	–	–	–	IC50 (CD11b (Mac-1); [3]): < 0.2 µM
CC(C)(C)c1ccc(Sc2ccccc2CNCCN2CCCC2)cc1.O=C(O)C(F)(F)F.O=C(O)C(F)(F)F [Cmpd AB]	13	>40	> 20	–
CN(C)CCCCNCc1ccccc1Sc1c(Cl)cccc1Cl [Cmpd AC]	–	–	–	IC50 (CD11b (Mac-1); [3]): < 0.2 µM
CN(CCCNCc1ccccc1Sc1c(Cl)cccc1Cl)c1ccccc1.O=C(O)C(F)(F)F.O=C(O)C(F)(F)F [Cmpd AD]	2	3	> 20	–
CN(CCCNCc1ccccc1Sc1ccc2ccccc2c1)c1ccccc1.O=C(O)C(F)(F)F.O=C(O)C(F)(F)F [Cmpd AE]	7	30	> 20	–
O=C(O)C(F)(F)F.O=C(O)C(F)(F)F.c1ccc(CN2CCC(NCc3ccccc3Sc3ccc4ccccc4c3)CC2)cc1 [Cmpd AF]	6	35	> 20	–
CCN1CCCC1CNCc1ccccc1Sc1ccc2ccccc2c1.O=C(O)C(F)(F)F.O=C(O)C(F)(F)F (centres unmarked) [Cmpd AG]	7	35	> 20	–
O=C(O)C(F)(F)F.O=C(O)C(F)(F)F.c1ccc(Sc2ccc3ccccc3c2)c(CNCCN2CCCC2)c1 [Cmpd AH]	9	38	> 20	–
CN(C)CCCNCc1ccccc1Sc1ccc2ccccc2c1.O=C(O)C(F)(F)F.O=C(O)C(F)(F)F [Cmpd AI]	6	33	> 20	–
FC(F)(F)Oc1ccc(Sc2ccccc2CNC2CCN(Cc3ccccc3)CC2)cc1.O=C(O)C(F)(F)F.O=C(O)C(F)(F)F [Cmpd AJ]	8	38	> 20	–
CN(CCCNCc1ccccc1Sc1cccc(C(F)(F)F)c1)c1ccccc1.O=C(O)C(F)(F)F.O=C(O)C(F)(F)F [Cmpd AK]	9	35	> 20	–
CSc1ccc(Sc2ccccc2CNCCCN(C)c2ccccc2)cc1.O=C(O)C(F)(F)F.O=C(O)C(F)(F)F [Cmpd AL]	8	20	> 20	–
CCN1CCN(c2cc(-c3ccc(Sc4ccccc4C(C)C)c(C(F)(F)F)c3)ccn2)CC1.O=C(O)C(F)(F)F.O=C(O)C(F)(F)F [Cmpd AN]	17	>40	> 20	–
CN(CCCNCc1ccccc1Sc1c(Cl)cccc1Cl)c1ccccc1 [Cmpd AY]	–	–	–	IC50 (Rac1): 1.9 µM
CN(CCCNCc1ccccc1Sc1cc(Cl)cc(Cl)c1)c1ccccc1 [Cmpd AZ]	–	–	–	IC50 (Rac1): 3.1 µM
O=C(/C=C/c1ccc(Sc2ccc(Cl)cc2Cl)c([N+](=O)[O-])c1)N1CCNCC1 [Cmpd A]	14	>40	17	–
O=C(/C=C/c1ccc(Sc2ccc3c(c2)OCCO3)c([N+](=O)[O-])c1)N1CCNCC1 [Cmpd B]	17	>40	> 20	–
CC(C)c1ccc(Sc2ccc(N)cc2Cl)cc1 [Cmpd E]	16	>40	> 20	–

Compound	EC50 (α2β1) [µM]	TOXICITY LD50 (Jurkat cells) [µM]	EC50 (α4β1) [µM]	other results
CC(C)c1ccccc1Sc1ccc(/C=C/C(=O)N2CCN(C(=O)OC(C)(C)C)C(CO)C2)cc1[N+](=O)[O-] (centres unmarked) [Cmpd F]	–	–	–	IC50 (CD11b (Mac-1); [4]): < 10 µM
CC(=O)N1CCN(C(=O)C2CC2c2ccc(Sc3ccccc3C(C)C)c(Cl)c2Cl)CC1 (centres unmarked) [Cmpd G]	16	>40	> 20	–
O=C(/C=C/c1ccc(Sc2cccc(N3CCC(N4CCCC4)CC3)c2)c(Cl)c1Cl)NCCCN1CCCC1=O [Cmpd J]	8	>40	> 20	–
O=C(/C=C/c1ccc(Sc2ccccc2CN2CCOCC2)c(Cl)c1)N1CCOCC1 [Cmpd L]	–	–	–	IC50 (CD11b (Mac-1); [4]): < 10 µM
Cl.O=C1CCCN1CCCNCc1ccc(Sc2cccc(Cl)c2Cl)c(Cl)c1 [Cmpd M]	8	25	> 20	–
CN(C)CCCCNCc1ccc(Sc2ccc(Cl)cc2Cl)c(Cl)c1 [Cmpd N]	–	–	–	IC50 (CD11b (Mac-1); [4]): < 10 µM
CN(C)CCCCNCc1ccccc1Sc1ccc(Cl)cc1Cl [Cmpd O]	–	–	–	IC50 (CD11b (Mac-1); [4]): < 10 µM
CN(C)CCN(Cc1ccc(Sc2ccc(Cl)cc2Cl)c(Cl)c1)C(=O)c1ccc(/C=C/C(=O)N2CCOCC2)cc1Cl [Cmpd P]	–	–	–	IC50 (CD11b (Mac-1); [4]): < 10 µM
CN(C)CCN(Cc1ccccc1Sc1ccc(Cl)cc1Cl)C(=O)c1ccc(/C=C/C(=O)N2CCOCC2)cc1Cl [Cmpd Q]	–	–	–	IC50 (CD11b (Mac-1); [4]): < 10 µM
CN(C)CCNCc1ccc(Sc2ccc(Cl)cc2Cl)c(Cl)c1 [Cmpd R]	–	–	–	IC50 (CD11b (Mac-1); [4]): < 10 µM
CN(C)CCNCc1ccccc1Sc1ccc(Cl)cc1Cl [Cmpd S]	–	–	–	IC50 (CD11b (Mac-1); [4]): < 10 µM and 1 µM
CN1CCCN(C(=O)/C=C/c2ccc(Sc3ccc4c(ccn4C)c3)c(Cl)c2Cl)CC1.O=C(O)C(F)(F)F [Cmpd T]	4	25	15	–
CN1CCN(C(=O)/C=C/c2ccc(Sc3ccc(Cl)cc3Cl)c(Cl)c2)CC1 [Cmpd U]	15	>40	> 20	–
COC(=O)N1CCN(C(=O)/C=C/c2ccc(Sc3ccccc3C(C)C)c([N+](=O)[O-])c2)CC1 [Cmpd V]	–	–	–	IC50 (CD11b (Mac-1); [4]): < 10 µM
Nc1ccc(SCc2ccc(Cl)cc2Cl)c(Cl)c1 [Cmpd X]	8	30	> 20	–
N[C@@H]1Cc2ccccc2O[C@@H]1c1ccc2c(c1)CCO2 [Cmpd Y]	7	25	> 20	–
CD11b E336A / CD18 (from UniProt P11215) (receptor)	–	–	–	binding, % [1]: 4.3%; binding, % [2]: 0.7%
CD11b F333A / CD18 (from UniProt P11215) (receptor)	–	–	–	binding, % [1]: 4.9%; binding, % [2]: 1.1%
CD11b I332A / CD18 (from UniProt P11215) (receptor)	–	–	–	binding, % [1]: 205%; binding, % of wildtype levels (% of wildtype levels) [2]: 123
CD11b Q327A / CD18 (from UniProt P11215) (receptor)	–	–	–	binding, % [1]: 140%; binding, % of wildtype levels (% of wildtype levels) [2]: 105
CD11b V254A / CD18 (from UniProt P11215) (receptor)	–	–	–	binding, % [1]: 147%; binding, % of wildtype levels (% of wildtype levels) [2]: 115
